Measured values as given in US20110224159A1, “BIDESMOSIDIC BETULIN AND BETULINIC ACID DERIVATIVES AND USES THEREOF AS ANTITUMOR AGENTS” (Universite du Quebec a Chicoutime, priority 2008, published 2011).
“Also recorded” adds a separate entry of the source. Like-named read-outs stand apart in the source and are kept apart here.

How the values were obtained:
[1] = test system: prostate adenocarcinoma (PC-3); assay: Cytotoxicity assay (resazurin reduction, 48 h), PC-3; type: cell-based, human
Experimental: (§1) Human lung carcinoma (A549, ATCC # CCL-185™), human colorectal adenocarcinoma (DLD-1, ATCC # CCL-221™), human breast adenocarcinoma (MCF7, ATCC # HTB-22™), human prostate adenocarcinoma (PC-3, ATCC # CCL-1435™) and human normal skin fibroblasts (WS1, ATCC # CRL-1502™) cell lines were obtained from the American Type Culture Collection (ATCC). All cell lines were cultured in minimum essential medium containing Earle's salts and L-glutamine (Mediatech Cellgro, VA), to which were added 10% fetal bovine serum (Hyclone), vitamins (1×), penicillin (100 IU/mL) and streptomycin (100 μg/mL), essential amino acids (1×), and sodium pyruvate (1×) (Mediatech Cellgro, VA). Cells were kept at 37° C. in a humidified environment containing 5% CO2.
(§2) Exponentially growing cells were plated in 96-well microplates (Costar, Corning Inc.) at a density of 5×10^3 cells per well in 100 μL of culture medium and were allowed to adhere for 16 h before treatment. Increasing concentrations of each compound in biotechnology performed certified dimethyl sulfoxide (DMSO) (Sigma-Aldrich, Cat. # D2438) and the cells were incubated for 48 h. The final concentration of DMSO in the culture medium was maintained at 0.5% (v/v) to avoid solvent toxicity. Cytotoxicity was assessed using resazurin (O'Brien, J. et al., 2000. Eur J Biochem 267(17): 5421-6) on an automated 96-well Fluoroskan Ascent F1™ plate reader (Labsystems) using excitation and emission wavelengths of 530 and 590 nm, respectively. Fluorescence was proportional to the cellular metabolic activity in each well. Survival percentage was defined as the fluorescence in experimental wells compared to that in control wells after subtraction of blank values. Each experiment was carried out twice in triplicate. IC50 results are expressed as mean±standard deviation.
(§3) In vitro cytotoxic activity of lupane-type bidesmosidic saponins was evaluated against four human cancer cell lines including lung carcinoma (A549), and colorectal (DLD-1), breast (MCF7) and prostate (PC-3) adenocarcinomas. The parent triterpenoids betulin (1) (Gauthier et al., 2006, supra), betulinic acid (2) (Kessler, J. H. et al., Cancer Lett. 2007, 251: 132-145) and the clinically used etoposide were used as positive controls. The cytotoxicity of 28-O-β-D-glucopyranosides of betulin (Gauthier et al., 2006, supra) and betulinic acid (Baglin et al., 2003, supra) was also investigated. The cell viability was assessed through resazurin reduction test (O'Brien et al, 2000, supra) after 48 hours of incubation between the compounds and cells. Since resazurin (Alamar blue) is a nontoxic dye, measurements can be obtained without killing the cells as opposed to the standard MTT assay (Bellamy, W. T. Drugs 1992, 44: 690-708). The cytotoxicity results were expressed as the concentration inhibiting 50% of the cell growth (IC50).

[2] = test system: breast adenocarcinoma (MCF7); assay: Cytotoxicity assay (resazurin reduction, 48 h), MCF7; type: cell-based, human
Experimental: as §1, §2, §3

[3] = test system: colorectal adenocarcinoma (DLD-1); assay: Cytotoxicity assay (resazurin reduction, 48 h), DLD-1; type: cell-based; settings: mean ± SD
Experimental: as §1, §2, §3

lung carcinoma (A549) [4] = assay: Cytotoxicity assay (resazurin reduction, 48 h), A549; type: cell-based, human
Experimental: as §1, §2, §3

[5] = test system: tested cancer cell lines (A549, DLD-1, MCF7, PC-3); assay: Cytotoxicity assay (resazurin reduction, 48 h), summary over the tested cancer cell lines; type: cell-based, human; settings: for cytotoxicity compared with reference or other tested compounds: tested cancer cell lines, P<0.05 where stated; for IC50: range or bound over the cell lines, read-out: IC50 against the tested cancer cell lines
Experimental: as §1, §2
as §3, with “The cytotoxicity results were expressed as the concentration inhibiting 50% of the cell growth (IC50).” left out

lung carcinoma (A549) [6] = settings: human lung carcinoma; footnote g: previously reported in Gauthier et al. 2006; cited from earlier work
[7] = test system: colorectal adenocarcinoma (DLD-1); settings: human colorectal adenocarcinoma; footnote g: previously reported in Gauthier et al. 2006; cited from earlier work
[8] = human prostate adenocarcinoma, 48 h, resazurin, mean ± SD, read-out: IC50 PC-3
[9] = human breast adenocarcinoma, 48 h, resazurin, mean ± SD, read-out: IC50 MCF7
[10] = human colorectal adenocarcinoma
[11] = human lung carcinoma, 48 h, resazurin, mean ± SD

| Compound | IC50 [1, 8] [µM] | IC50 [2, 9] [µM] | IC50 [3, 10] [µM] | IC50 (lung carcinoma (A549) [4]; [11]) [µM] | further results |
| --- | --- | --- | --- | --- | --- |
| 28-O-α-L-Rhamnopyranosyl betulinic acid 3β-O-α-L-rhamnopyranoside [Compound 22b] | 7.2 ± 0.5 | 6 ± 0.6 | 7.3 ± 0.3 | 7.2 ± 0.5 | cytotoxicity compared with reference or other tested compounds [5]: significantly more active than their parent triterpenoids |
| 28-O-β-D-Glucopyranosyl betulin 313-O-α-L-rhamnopyranoside [Compound 16b] | 6.9 ± 0.4 | 9 ± 0.7 | 10.6 ± 0.9 | 16.8 ± 0.9 |  |
| 28-O-β-D-Glucopyranosyl betulin [Compound 28GBet, reference compound] | > 100 | > 100 | > 100 |  | IC50 (lung carcinoma (A549) [6]): > 100 µM |
| C=C(C)[C@@H]1CC[C@]2(C(=O)O)CC[C@]3(C)[C@H](CC[C@@H]4[C@@]5(C)CC[C@H](O)C(C)(C)[C@@H]5CC[C@]43C)[C@@H]12 [Compound 2, Betulinic acid] | 40 ± 2 | 41 ± 1 |  |  | IC50 [7]: 15 µM; IC50 (lung carcinoma (A549) [6]): 10.3 ± 0.4 µM |
| C=C(C)[C@@H]1CC[C@]2(C(=O)O[C@@H]3O[C@H](CO)[C@@H](O)[C@H](O)[C@H]3O)CC[C@]3(C)[C@H](CC[C@@H]4[C@@]5(C)CC[C@H](O[C@@H]6OC[C@H](O)[C@H](O)[C@H]6O)C(C)(C)[C@@H]5CC[C@]43C)[C@@H]12 [Compound 3, 28-O-β-D-Glucopyranosyl betulinic acid 3β-O-α-L-arabinopyranoside] | 68 ± 7 | 23 ± 1 | 60 ± 5 | 76 ± 4 | IC50 [5]: 23 to 76 µM |
| C=C(C)[C@@H]1CC[C@]2(CO[C@@H]3O[C@H](CO)[C@@H](O)[C@H](O)[C@H]3O)CC[C@]3(C)[C@H](CC[C@@H]4[C@@]5(C)CC[C@H](O[C@@H]6OC[C@H](O)[C@H](O)[C@H]6O)C(C)(C)[C@@H]5CC[C@]43C)[C@@H]12 [Compound 16a, 28-O-β-D-Glucopyranosyl betulin 313-O-α-L-arabinopyranoside] |  |  | 19 ± 2 | > 100 | IC50 ([1]; PC-3 cell line, read-out: IC50 against PC-3): 5.3 µM; IC50 ([2]; breast adenocarcinoma (MCF7), read-out: IC50 against MCF7): 9.5 µM |
| C=C(C)[C@@H]1CC[C@]2(C(=O)O[C@@H]3O[C@H](CO)[C@@H](O)[C@H](O)[C@H]3O)CC[C@]3(C)[C@H](CC[C@@H]4[C@@]5(C)CC[C@H](O[C@@H]6O[C@@H](C)[C@H](O)[C@@H](O)[C@H]6O)C(C)(C)[C@@H]5CC[C@]43C)[C@@H]12 [Compound 19, 28-O-β-D-Glucopyranosyl betulinic acid 3β-O-α-L-rhamnopyranoside] | 11.2 ± 0.8 | 5.7 ± 0.6 | 11 ± 0.5 | 23 ± 1 |  |
| C=C(C)[C@@H]1CC[C@]2(CO[C@@H]3O[C@H](CO)[C@@H](O)[C@H](O)[C@H]3O)CC[C@]3(C)[C@H](CC[C@@H]4[C@@]5(C)CC[C@H](O[C@@H]6O[C@H](CO)[C@@H](O)[C@H](O)[C@H]6O)C(C)(C)[C@@H]5CC[C@]43C)[C@@H]12 [Compound 21a, 28-O-β-D-Glucopyranosyl betulin 3β-O-β-D-glucopyranoside] | > 100 | 14.5 ± 0.9 | 27 ± 2 | > 100 | cytotoxicity compared with betulinic acid, MCF7 ([2]; breast adenocarcinoma (MCF7)): significantly more active than betulinic acid (2) |
| C=C(C)[C@@H]1CC[C@]2(C(=O)O[C@@H]3O[C@H](CO)[C@@H](O)[C@H](O)[C@H]3O)CC[C@]3(C)[C@H](CC[C@@H]4[C@@]5(C)CC[C@H](O[C@@H]6O[C@H](CO)[C@@H](O)[C@H](O)[C@H]6O)C(C)(C)[C@@H]5CC[C@]43C)[C@@H]12 [Compound 21b, 28-O-β-D-Glucopyranosyl betulinic acid 3β-O-β-D-glucopyranoside] | 66 ± 3 | 20 ± 2 | > 100 | > 100 | cytotoxicity compared with betulinic acid, MCF7 ([2]; breast adenocarcinoma (MCF7)): significantly more active than betulinic acid (2) |
| C=C(C)[C@@H]1CC[C@]2(CO[C@@H]3O[C@@H](C)[C@H](O)[C@@H](O)[C@H]3O)CC[C@]3(C)[C@H](CC[C@@H]4[C@@]5(C)CC[C@H](O[C@@H]6O[C@@H](C)[C@H](O)[C@@H](O)[C@H]6O)C(C)(C)[C@@H]5CC[C@]43C)[C@@H]12 [Compound 22a, 28-O-α-L-Rhamnopyranosyl betulin 3β-O-α-L-rhamnopyranoside] | 1.8 ± 0.1 | 1.7 ± 0.2 | 1.9 ± 0.1 | 1.9 ± 0.1 | IC50 [5]: 1.7 to 1.9 µM; cytotoxicity compared with reference or other tested compounds [5]: significantly more active than their parent triterpenoids; also recorded: the most potent of all tested compounds |
| C=C(C)[C@@H]1CC[C@]2(C(=O)O[C@@H]3O[C@H](CO)[C@@H](O)[C@H](O)[C@H]3O)CC[C@]3(C)C(CC[C@@H]4[C@@]5(C)CC[C@H](O)C(C)(C)[C@@H]5CC[C@]43C)[C@H]12 (stereo partly drawn) [Compound 28GBetA, 28-O-β-D-glucopyranosyl betulinic acid, reference compound] | > 100 | > 100 | > 100 | > 100 |  |
| COc1cc([C@@H]2c3cc4c(cc3[C@@H](O[C@@H]3O[C@@H]5CO[C@@H](C)O[C@H]5[C@H](O)[C@H]3O)[C@H]3COC(=O)[C@H]23)OCO4)cc(OC)c1O [Etoposide, etoposide, reference compound] |  |  |  |  | IC50 ([3]; DLD-1, human colorectal adenocarcinoma): 27 ± 5 µM; IC50 (lung carcinoma (A549) [4]; A549, human lung carcinoma, 48 h, resazurin, mean ± SD): 3.4 ± 0.1 µM |
| betulinic acid 3 β-O-α-L-rhamnopyranoside [reference compound] |  |  |  |  | IC50 (lung carcinoma (A549) [4]; A549, comparator named in text): 3.8 µM |
